Where “and” joins values, the source holds several entries; their conditions need not be identical. Identical values can stand only once.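 Briefly, cells in 96-well plates were exposed to five compound concentrations for 48 h, and endpoints were estimated by linear interpolation. GI50 = concentration required for 50% inhibition of growth. The concentration for full growth arrest is given as TGI.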
Assays:
Test in all cases: NCI-60 cell line screen, 48 h
[1] = system: A498 renal
[2] = system: BT-549 breast
[3] = system: CCRF-CEM leukemia
[4] = system: HOP-62 NSCLC
[5] = system: HS 578T breast
[6] = system: MDA-MB-231 breast
[7] = system: OVCAR-4 ovarian
[8] = system: RPMI-8226 leukemia
[9] = system: RXF 393 renal
[10] = system: SW-620 colon

SMILES	GI50 [1]	TGI [1]	GI50 [2]	TGI [2]	GI50 [3]	TGI [3]	GI50 [4]	TGI [4]	GI50 [5]	TGI [5]	GI50 [6]	TGI [6]	GI50 [7]	TGI [7]	GI50 [8]	TGI [8]	GI50 [9]	TGI [9]	GI50 [10]	TGI [10]
COc1ccc2[nH]c(O)c(/C=c3/cc4c(c(-c5ccc(F)c(OC)c5)n3)=Nc3ccccc3-4)c2c1	4.42 µM	19.2 µM	1.89 µM	3.91 µM	2.13 µM	9.88 µM	2.42 µM	4.88 µM	1.87 µM	5.04 µM	1.47 µM	3.14 µM	3.53 µM	16.3 µM	2.04 µM	5.53 µM	1.53 µM	3.01 µM	1.77 µM	3.8 µM
C/C(=N\Nc1nc2ccccc2n1C)c1cc2ccccc2cn1	–	1.47 µM	–	13.8 µM	–	> 54.3 µM	–	> 26.3 µM	–	15.1 µM	–	3.21 µM	–	13 µM	–	1.63 µM	–	7.7 µM	–	11.3 µM
CCOP(=O)(O)CN1CCNCCN(CP(=O)(O)OCC)CCNCC1	–	> 100 µM	–	> 100 µM	–	> 100 µM	–	> 100 µM	–	> 100 µM	–	> 100 µM	–	> 100 µM	–	> 100 µM	–	> 100 µM	–	> 100 µM
C/C(=N\Nc1nc2cc(C(F)(F)F)ccc2s1)c1ccccn1	–	7.61 µM	–	> 40.1 µM	–	> 100 µM	–	13.7 µM	–	14.6 µM	–	0.791 µM	–	32.6 µM	–	> 85.2 µM	–	12.5 µM	–	7.65 µM
CN(C)Cc1cc(C(=O)/C=C/c2ccccc2)cc(CN(C)C)c1O	–	78.6 µM	–	42.7 µM	–	> 100 µM	–	> 100 µM	–	> 100 µM	–	58.1 µM	–	> 100 µM	–	54.3 µM	–	71.8 µM	–	45.1 µM
Cc1nn(-c2ccccc2)c(C)c1/C=N/N=C1\S/C(=C\c2ccc(Cl)cc2)C(=O)N1c1ccccc1	–	> 100 µM	–	> 100 µM	–	> 100 µM	–	> 100 µM	–	60.9 µM	–	> 100 µM	–	4.74 µM	–	> 100 µM	–	84.3 µM	–	> 100 µM
CC1=C2C(=CO[C@H](C)[C@H]2C)C(=O)C(C(=O)O)=C1O	32.7 µM	–	–	37.1 µM	27.7 µM	> 88.7 µM and 45.9 µM	29 µM	44.2 µM and 79.3 µM	–	96.4 µM	–	58.5 µM	–	> 80.5 µM and 87.5 µM	25.4 µM	63.3 µM and 58.3 µM	21.9 µM	35.8 µM and 48.4 µM	26.9 µM	> 74.5 µM and 77.4 µM
N#Cc1cc2c(n(C3OC(CO)C(O)C(O)C3O)c1=S)CCCCCC2 (stereo not given)	–	> 100 µM	–	> 100 µM	–	> 100 µM	–	> 100 µM	–	> 100 µM	–	> 100 µM	–	> 100 µM	–	> 100 µM	–	> 100 µM	–	> 100 µM
C=C=C(CC(CC(=C)Br)(C(=O)OC)C(=O)OC)S(=O)(=O)c1ccccc1	–	14.7 µM	–	3.18 µM	–	> 100 µM	–	12.4 µM	–	6.37 µM	–	4.93 µM	–	21.2 µM	–	4.37 µM	–	3.99 µM	–	2.99 µM
O=C1c2c(O)cccc2-c2nn(CCNCCO)c3ccc(NCCNCCO)c1c23	–	0.578 µM	–	1.42 µM	–	0.0631 µM	–	0.63 µM	–	0.535 µM	–	2.51 µM	–	2.97 µM	–	7.65 µM	–	1.37 µM	–	7.09 µM
O=C(Nc1ccccc1C(=O)NCc1ccccc1)/C(=C/c1ccccc1)NC(=O)c1ccccc1	–	> 100 µM	–	> 100 µM	–	> 100 µM	–	> 100 µM	–	> 100 µM	–	> 100 µM	–	> 100 µM	–	> 100 µM	–	> 100 µM	–	> 100 µM
